This assay deals with CA3 neurons of the hippocampus. The assay is described as follows: Decrease in neuronal excitability on hippocampus slice preparations of CA3 neurons, intracellular leads. It counts as cell-based, guinea-pigs. As to the method: In the model of CA3 neurons in hippocampus tissue slices, NHE inhibitors with their antiepileptic and antipsychotic therapy potential inhibit epileptiform discharges. Hyperexcitability of neurons in the form of so-called epileptiform discharges was triggered by the action of bicuculline, caffeine or low magnesium concentrations. […] The decrease in neuronal excitability was tested on slice preparations of CA3 neurons of the hippocampus (guinea-pigs). The excitation-inhibiting action of cariporide (HOE 642) was investigated in 8 experiments. The neuronal excitability was assessed with intracellular leads with the aid of the spontaneous bioelectric activity and the pharmacologically produced epileptiform activity which had been induced by bicuculline, caffeine or absence of magnesium.

Structures are written as SMILES.

For `CC(C)c1ccc(C(=O)NC(=N)N)cc1S(C)(=O)=O` [cariporide], the “inhibition of the epileptiform discharges” value (CA3 neurons in hippocampus tissue slices, discharges triggered by bicuculline, caffeine or low magnesium concentrations) is recorded as “marked inhibition”. The “duration of the reduction of spontaneous action potential and paroxysmal depolarization frequency” value (after wash-in of 0.1-0.5 mM cariporide) is listed as “more than 45 minutes”. The “reduction of the frequency of the spontaneous action potentials” value (after wash-in of 0.1-0.5 mM cariporide, reversible, 8 experiments) is on record as 30-80%. In addition, the “reduction of the frequency of periodic paroxysmal depolarization” value (after wash-in of 0.1-0.5 mM cariporide, reversible, epileptiform activity induced by bicuculline, caffeine or absence of magnesium, 8 experiments) is 30-80%.

For the origin of these results see patent publication US20040097544A1, “Use of an inhibitor of the Na+/H+ exchanger for the production of a medicament for the treatment or prophylaxis of disturbances of the central nervous system” (Hoechst Marion Roussel Deutschland GMBH, priority 1997, published 2004).
